Measurements taken from patent US20240238201A1, “LIPOSOME CARRIER-BASED MULTI-TARGET COMPLEX, DRUG DELIVERY PLATFORM CONTAINING THE SAME, AND APPLICATION THEREOF” (HANGZHOU XINGAO BIOTECHNOLOGY CO., LTD., priority 2021, published 2024).

Tests used:
[1] = tested on: murine colorectal cancer cell CT26; assay: Subcutaneous graft tumors of murine colorectal cancer cell CT26 in BalB/C mice; assay type: in vivo, mouse; conditions: intraperitoneal once a day for 21 days; for Average tumor weight (g): doses of Table 1, n = 10, mean ± SD; for Average tumor suppression rate (%): doses of Table 1, vs negative control
Method: (§1) Specie and strain: BalB/C ordinary mice and C57BL/6 ordinary mice.
(§2) Route of administration: intraperitoneal injection.
(§3) Dose of the novel multi-target immune complex: 200 μL/each;
(§4) Dosing frequency: once a day for 21 consecutive days;
(§5) Number of animals per group: 10.
(§6) Used herein are mouse colorectal cancer cell line CT26, mouse breast cancer cell line 4T1 and mouse melanoma cell line B16F10, which were purchased from the cell bank of Chinese Academy of Sciences.
(§7) Cancer cells were cultured, passaged, collected at the logarithmic phase of cells, and prepared into a cell suspension at a concentration of (1.0×10^7) per ml. Mice were injected with 0.2 ml of the cell suspension at the axilla of the right forelimb (cell number 2.0×10^6 cells/each), and tumorigenicity was successful in about 8 days.
(§8) These mice were randomly divided into 11 groups equally, namely, group A: negative control group (PBS group), group B: positive control (cGAMP) group (dose: 10 mg/kg), group C: ENPP1-YZ1 group (dose: 5 mg/kg), group D: ENPP1-YZ2 group (dose: 5 mg/kg), group E: anti-PD-L1 VHH group (dose: 2.5 mg/kg), group F: anti-CD47 VHH group (dose: 2.5 mg/kg), group G: complex I group, group H: complex II group, group I: complex III group, group J: complex IV group, and group K: complex V group. The mice were administered once a day for 21 days. After 21 days, the mice were executed, the tumor weight was weighed, and the tumor inhibition rate was calculated by [1-average tumor weight of experimental groups (groups B, C, D, E, F, G, H, I, J, and K)/average tumor weight of group A]×100%.
(§9) The mouse colorectal cancer cell line CT26 was prepared and injected into BalB/C ordinary mice. The mouse breast cancer cell line 4T1 was prepared and injected into BalB/C ordinary mice. The melanoma cell line B16F0 was prepared and injected into C57BL/6 ordinary mice. The anti-tumor effects of different drugs were observed.
(§10) Data were expressed as x±s and processed using a SPSS 10.0 software. One-way ANOVA test was used to compare the significance of the differences in tumor weight between groups, with a significance level a=0.05.

[2] = tested on: mouse breast cancer cell line 4T1; assay: Subcutaneous graft tumors of mouse breast cancer cell line 4T1 in BalB/C mice, with lung metastasis nodules; assay type: in vivo; conditions: for Average tumor weight (g) / Average tumor suppression rate (%) / Number of metastatic lung nodules: 4T1 in BalB/C mice; for Average tumor weight (g) / Average tumor suppression rate (%): intraperitoneal once a day for 21 days; for Average tumor weight (g): doses of Table 1, n = 10, mean ± SD; for Average tumor suppression rate (%): doses of Table 1, vs negative control; for Number of metastatic lung nodules: lungs after 21 days of dosing, negative control 35; for number of lung tumor nodules compared with the model group (in words): 4T1 breast cancer lung metastasis, lungs fixed with 4% paraformaldehyde
Method: as §1, §2, §3, §4, §5, §6, §7, §8, §9, §10
Dissections were performed on mice that had been executed for the 4T1 breast cancer study, where the lung tissues were carefully peeled off and photographed for observation after fixation with 4% paraformaldehyde. It could be clearly seen that the lungs of the mice in the model group were black and existed multiple white tumor nodules with various sizes on the surface. […] By statistical analysis of the tumor nodules in the lung tissues of mice, the results of the efficacy of inhibiting the lung metastasis of breast cancer cells were shown in Table 3.

[3] = tested on: mouse melanoma cell line B16F0; assay: Subcutaneous graft tumors of mouse melanoma cell line B16F0 in C57BL/6 mice; assay type: in vivo; conditions: intraperitoneal once a day for 21 days; for Average tumor weight (g): doses of Table 1, n = 10, mean ± SD; for Average tumor suppression rate (%): doses of Table 1, vs negative control
Method: as §1, §2, §3, §4, §5, §6, §7, §8, §9, §10

| Molecule | Average tumor weight (g) [1] | Average tumor suppression rate (%) [1] | Average tumor weight (g) [2] | Average tumor suppression rate (%) [2] | Number of metastatic lung nodules [2] | Average tumor weight (g) [3] | Average tumor suppression rate (%) [3] | number of lung tumor nodules compared with the model group (in words) [2] |
| --- | --- | --- | --- | --- | --- | --- | --- | --- |
| 2-[(4-methyl-(thiazolo[4,5-B]pyridinyl)-2-thio)methyl]-7-fluoro quinazoline-4(3H)-one [ENPP1-YZ2] | 0.805 ± 0.218 (g) | 64.5% | 0.852 ± 0.223 (g) | 62.5% | 20 | 0.926 ± 0.227 (g) | 61.2% |  |
| Nc1nc2c(ncn2[C@@H]2O[C@@H]3COP(=O)(O)O[C@H]4[C@@H](O)[C@H](n5cnc6c(N)ncnc65)O[C@@H]4COP(=O)(O)O[C@@H]2[C@@H]3O)c(=O)[nH]1 [cGAMP, cyclic dinucleotide 2′,3′-cGAMP, reference compound] | 0.706 ± 0.152 (g) | 68.8% | 0.775 ± 0.221 (g) | 65.9% | 12 | 0.808 ± 0.137 (g) | 66.1% | a decrease in the number of tumor nodules |
| COc1ccc2[nH]c(SCc3nc4cc(F)ccc4c(=O)[nH]3)nc2n1 [ENPP1-YZ1, 2-[(5-methoxy-(imidazo[4,5-B]pyridinyl)-2-thio)methyl]-7-fluoroquinazoline-4(3H)-one] | 0.816 ± 0.203 (g) | 63.9% | 0.898 ± 0.136 (g) | 60.5% | 21 | 0.943 ± 0.208 (g) | 60.5% |  |
| Anti-PD-L1 VHH: anti-PD-L1 nanobody, SEQ ID NO: 1, 6His-tagged, expressed in E. coli (protein, 6His tag; Aritifical sequence) VHH: QVQLQESGGGLVQTGGSLRLSCAASGSTVSSSMMAWWRQTPGNQRELVALVASGNNTNYVDSVKGRFTVSRDNAKNTMYLQMNSLKPEDTAVYYCRILSVNGIWYWGQGTQVTVSS | 1.735 ± 0.206 (g) | 23.4% | 1.752 ± 0.214 (g) | 22.9% | 27 | 1.758 ± 0.212 (g) | 26.3% | a small decrease in the number of tumor nodules |
| Anti-CD47 VHH: anti-CD47 nanobody, SEQ ID NO: 2, 6His-tagged, expressed in E. coli (protein, 6His tag) VHH: QVQLVESGGGLVEPGGSLRLSCAASGIIFKINDMGWYRQAPGKRREWVAASTGGDEAIYRDSVKDRFTISRDAKNSVFLQMNSLKPEDTAVYYCTAVISTDRDGTEWRRYWGQGTQVTVSS | 1.807 ± 0.187 (g) | 20.2% | 1.805 ± 0.176 (g) | 20.2% | 25 | 1.809 ± 0.217 (g) | 24.2% | a small decrease in the number of tumor nodules |
